Measurements from PMC8691750, “Euphorbia Factor L2 ameliorates the Progression of K/BxN Serum-Induced Arthritis by Blocking TLR7 Mediated IRAK4/IKKβ/IRF5 and NF-kB Signaling Pathways” (Frontiers in Pharmacology, 2021).

Tests used:
LPS-induced lung injury = tested on: LPS-induced lung injury; parameters: method as in Zhang et al., 2018; settings: mice; ref Zhang et al., 2018; cited from earlier work
[1] = tested on: TNF-α, IL-4, IL-17A, IL-1β and IL-6 in serum; experiment: Cytokines in sera of STA mice (CBA Multiplex kit, ELISA); format: in vivo, C57BL/6 mice
Experimental: K/BxN serum was collected from K/BxN mice at 8 weeks of age, pooled, aliquoted and stored at -20 °C. K/BxN serum-transfer arthritis (STA) model was induced by intraperitoneal (i.p.) application of 150 μL of serum at day 0. Clinical score for arthritis severity was assessed using a 0–4 point scale for each paw at various time points (0–16 total score) as described previously ([Luo et al., 2011]). 8-week old male C57BL/6 mice were purchased from Dashuo Animal Center (China, Chengdu), maintained at 25°C, and exposed to 12-h light and dark cycles. Mice were fed with standard laboratory chow and water with 1 week of acclimatization. Naive mice were used as the control group. Except the control mice, all mice were i. p. injected with 150 μL of serum, then randomly divided into the following groups and treated with different compounds daily for the consecutive 8 days: 1) STA group; 2) Solvent control group, mice were gavaged with the solvent; 3) Dexamethasone (DEX) group, mice were gavaged with 30 mg/kg DEX; 4) EFL2 group 1, mice were gavaged with 40 mg/kg EFL2; 5) EFL2 group 2, mice were intraperitoneally injected with 15 mg/kg EFL2; 6) EFL2 group 3, […] were intraperitoneally injected with 40 mg/kg EFL2. […] All animal experiments were conducted in accordance with ethical regulation for animal care and use in China.
IL-4, IL-17A and TNF-α in sera from different group mice were measured using CBA Multiplex kit (BD, United States). The concentrations of IL-1β and IL-6 in serum or supernatant were detected by ELISA Kit (MULTI SCIENCES, China) according to the manufacturers’ instructions.

## C=C1C(OC(=O)c2ccccc2)CC2C(C=C(C)C(=O)C3(OC(C)=O)CC(C)C(OC(=O)c4ccccc4)C3C1OC(C)=O)C2(C)C (centres unmarked) [EFL2, Euphorbia factor L2]
LPS-induced lung injury
  effect on LPS-induced lung injury: robust improving effect
[1]; STA mice, EFL2 15 mg/kg i.p., day 8
  IL-6 level in sera: only effectively inhibited
[1]; STA mice, EFL2 40 mg/kg i.p.
  IL-1β level in sera: significantly reduced
  IL-6 level in sera: significantly reduced
[1]; control, STA and STA mice treated with DEX or EFL2
  TNF-α, IL-4 and IL-17A levels in blood (other cytokines): did not affect
